Molecular target: T1, human P2X3 receptors (hP2X3Rs) (Homo sapiens, UniProt P56373)
T1 construct: transfected with rat or human full-length P2X3 cDNA subcloned into pIRES2-EGFP; expressed in transfected cells; host or cells: HEK293T (HEK293 in the results)
T1 sequence (P56373 1-397): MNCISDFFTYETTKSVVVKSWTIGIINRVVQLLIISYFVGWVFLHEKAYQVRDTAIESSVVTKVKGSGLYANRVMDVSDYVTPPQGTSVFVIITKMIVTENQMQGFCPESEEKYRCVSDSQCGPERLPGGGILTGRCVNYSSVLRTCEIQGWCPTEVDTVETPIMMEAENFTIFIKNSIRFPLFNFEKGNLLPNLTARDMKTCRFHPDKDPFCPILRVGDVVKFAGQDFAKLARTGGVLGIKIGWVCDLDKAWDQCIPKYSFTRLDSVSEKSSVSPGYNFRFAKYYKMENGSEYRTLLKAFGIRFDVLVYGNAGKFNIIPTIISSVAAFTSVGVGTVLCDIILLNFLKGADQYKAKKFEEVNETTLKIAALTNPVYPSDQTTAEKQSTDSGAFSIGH
Experiment: Whole-cell patch clamp on HEK293 cells expressing recombinant human P2X3Rs
Assay type: cell-based
Description: Rat trigeminal, nodose, or dorsal root ganglion (TG, NG, and DRG, respectivley) neurons in culture were prepared as described previously.[46],[47] Neurons were plated on poly-L-lysine (0.2 mg/ml)-coated Petri dishes and cultured for one to two days under an atmosphere containing 5% CO2. Cells were used within two days of plating when they lacked processes. HEK293T cells were prepared as reported previously[32],[48] and transfected with rat or human full-length P2X3 cDNA subcloned into pIRES2-EGFP (Clontech, Mountain View, CA, USA).
TG, NG, DRG, or HEK cells were recorded in the whole-cell configuration while being continuously superfused (at 2 ml/min) with control solution containing (in mM): 152 NaCl, 5 KCl, 1 MgCl2, 2 CaCl2, 10 glucose, and 10 HEPES; pH was adjusted to 7.4 with NaOH and osmolarity was adjusted to 320 mOsM with glucose. […] Responses to selective P2X3R agonist α,β-methylene-ATP (α,β-meATP; resistant to ectoATPase hydrolysis, Sigma-Aldrich) were measured using an EPC-9 amplifier operated by HEKA Patch Master software (HEKA Electronik, Germany). Cells were voltage-clamped at −70 mV. In most cells, series resistance was compensated by 80%. To determine EC50 values, dose-response curves were constructed for α,β-meATP by administering different agonist doses same cells and fitting data to a logistic equation (Origin 8.0, Microcal, Northampton, MA).
Agonists and antagonists were applied (usually for 2 s) via a rapid superfusion system (Rapid Solution Changer RSC-200; BioLogic Science Instruments, Grenoble, France) placed 100 to 150 µm near the cell. The time for the solution exchange across the cell was approximately 30 ms, as judged with liquid junction potential measurements. All chemicals, including enzymes for cell culture, were from Sigma-Aldrich (St. Louis, MO). […]
The peak amplitudes of the responses were measured using HEKA Patch Master software. […] All data are presented as mean ± SEM (n = the number of cells) with statistical significance assessed by paired t-test (for parametric data) or Mann-Whitney rank-sum test (for nonparametric data). […]

remaining activity at 1 µM (HEK293, read-out: α,β-meATP test currents, % of control): 12 ± 4%
remaining activity at 0.1 µM (HEK293, read-out: α,β-meATP test responses, % of control): 48 ± 8%
activity at 0.01 µM (HEK293, read-out: α,β-meATP-activated currents, % of control values): 80 ± 5%
SMILES: Nc1ncnc2c1ncn2[C@@H]1O[C@H](COP(=O)(O)OP(=O)(O)NP(=O)(O)OP(=O)(O)OC[C@H]2O[C@@H](n3cnc4c(N)ncnc43)[C@H](O)[C@@H]2O)[C@@H](O)[C@H]1O [AppNHppA, diadenosine 5′,5′′′-P^1,P^4-(β,γ-imido)tetraphosphate]

Reference: PMC4955970, “Stable, synthetic analogs of diadenosine tetraphosphate inhibit rat and human P2X3 receptors and inflammatory pain” (Molecular Pain, 2016)
